Laboratory results reported in patent US11179452B2, “Antigen specific multi epitope vaccines” (priority 2006, dated 2021).
No end group written: not given here.

Experiments:
Type in all cases: cell-based, human
PBL [1] = assay: ELISA of cytokine secretion by PBL stimulated once with peptide-pulsed DC; conditions: peptide DC ratio 16:1, one out of five experiments, six donors
Description: (§1) Human PBMC were separated from buffy coat samples of naive donors using Ficoll UNI-SEPmaxi tube. Separated cells were suspended in RPMI medium supplemented with 10% FCS, L-Glutamine, Sodium Pyruvate, MEM-EAGLE non-essential amino-acids, HEPES and Gentamycin Sulphate (Bet-Haemek Industries, IL) and cultivated for 4 h at 37° C. in a culture dish (Corning 150 mm×25 mm). Adherent cells were collected and cultured for 7 days in serum free DCCM-1 medium supplemented with L-Glutamine, huIL-4 (1000 IU/ml) (Cytolab IL) and GM-CSF-80 ug/ml (Cytolab IL). On day seven floating cells were collected and loaded with 50 ug/ml of examined peptide for 18 h at 37° C.
(§2) Cytokine release was studied during the culture of stimulated T-cells. The evaluated samples were collected from the T cell culture medium on day 2, 3, and 5 and stored until use at −20° C.
(§3) […] of the selected capture antibody (e.g. anti-Hu IFN-Gamma, or anti-Hu TNF-alfa or anti IL-2) were added to each well at the final concentration of 5 μg/ml in PBS. Plates were incubated for 2 h at R.T. or over night at 4° C. Next, […] of blocking solution were added for an incubation of 2 h at R.T. […] of evaluated samples were added in duplicate into 2 wells for 2 hours at RT. After 2 h of incubation at R.T plates were washed λ4 times in washing solution. In the next step, a Biotin-conjugated detection antibody (relevant to coated antibody) was added at a final concentration of 10 μg/ml in total volume of 100 μl for 1 h at R.T. Finally, 100 μl/well working dilution (1:10000 in Blocker solution) of Streptavidin-HRP were added to each well and incubated for 1 h at R.T.
(§4) Plates were washed λ6 times with PBS-Tween (0.4%) and 100 μl/well of TMB/E Solution (CHEMICON, Catalog #ES001) was added. The plates were then exposed until blue color appeared in the wells of the positive control and no color was detected in the blank wells. To stop the color reaction, 50 μl/well of 10% of Sulfuric acid was added. The plates were counted in ELISA-Reader using a 450 nm filter.

PBMC = assay: Proliferation, direct presentation of peptide via PBMC (monocytes); conditions: for PBL Index of stimulation (SI) via PBMC: naive donors, representative of 5 experiments; for Optimal dose via PBMC: optimal dose required for PBL activation, six donors; for Optimal dose via PBMC / Peak of Proliferation (Hours) via PBMC: average of 5 experiments; for Peak of Proliferation (Hours) via PBMC: visual inspection daily during 5 days
Description: (§5) Proliferation analysis was conducted in three different methods. In all three methods, plates were cultured for 3-5 days under visual control and then 0.5 […]Cu/well of 3[H] (Amersham) was added for additional culture of to 18 h at 37° C. In the last step, plates were harvested and the radioactive counts were measured in a □ counter. • 1. DC indirect presentation: In the first method, 100 µl of 2×10^6 thawed PBL were placed in U-shape Bottom 96 well plate (Nunc) with RPMI medium supplemented with 5% H AB serum, L-Glutamine, Sodium Pyruvate, MEM-EAGLE non-essential amino-acids, HEPES and Gentamycin. At the next stage 100 µl of 25×10^4 peptide-pulsed DC were added to each three wells of PBL and underwent proliferation analysis as described above. • 2. PBL direct presentation: In the 2nd method, 100 µl of 2×10^6 PBL were placed in Flat Bottom 96 well plates (Corning) and stimulated with different concentrations (0.05 ug/ml-2 ug/ml) of peptides. In the next step the cells underwent proliferation analysis as described above. • 3. PBMC direct presentation: In third method PNMC were used under similar conditions as described for the second method.
b. Direct presentation of the peptides via PBMC i.e. monocytes
(§6) Five experiments were performed according to the protocol described in material and methods with buffy-coat enriched PBLs obtained from six different naive donors (obtained from the Israeli blood bank).

PBL [2] = assay: Proliferation of PBL, DC indirect presentation (peptide-pulsed autologous DC); conditions: for PBL Index of stimulation (SI) via DC: naive donors, CPM sample / CPM control, representative of 5 experiments; for IS (SI of the peptides as indicated in Table 7): one out of five experiments; for IS (SI of the peptides as indicated in Table 7) / Optimal dose via DC: six donors; for Optimal dose via DC: optimal dose required for PBL activation; for Optimal dose via DC / Peak of Proliferation (Hours) via DC: average of 5 experiments; for Peak of Proliferation (Hours) via DC: visual inspection by light microscopy daily during 5 days
Description: as §1, §5
In the first set of experiments, the 21mer ImMucin, its different 9mer epitopes and other control epitopes (Table 3) were evaluated in proliferation assays with the aim of finding their optimal mode of presentation, stimulated dose as well as their peak of activity (time wise).
To evaluate the most efficient method for priming of PBLs with the different peptides, the following methods were compared:
a. In-direct presentation of the peptide via Autologues-pulsed DC
as §6

[3] = tested on: T-Cell specific subpopulation (Clones); assay: ELISA of cytokine secretion by the T-cell specific subpopulation (clones) stimulated with peptides; conditions: two experiments, four donors
Description: (§7) Thawed PBLs underwent 1st stimulation with ImMucin pulsed Autologues DC at a ratio of 20:1 and cultured for 7 days in dedicated T cell Medium. T cell medium contained RPMI medium supplemented with 10% FCS, L-Glutamine, Sodium Pyruvate, MEM-EAGLE non-essential amino-acids, HEPES and Gentamycin Sulphate (Bet-Haemek Industries, IL) as well as with 50 IU/ml of recombinant IL-7 (Cytolab IL). For the second stimulation, PBL were transferred to adherent autologues ImMucin-pulsed PBMC and cultured for additional 5 days in T cell Medium. At the end of the 5 days, medium was partial replaced with fresh medium containing 1 ug/ml of ImMucin and 50 IU/ml IL-2 for a third stimulation of 48 h at 37° C. Following the last stimulation ImMucin T cell line was checked for immune activation properties.
as §2, §3, §4
(§8) For that purpose, an enriched ImMucin-specific T cell subpopulation was produced via repeated stimulation with ImMucin. The specificity of the subpopulation for ImMucin, as well as to the other VXL epitopes, was examined using proliferation assays, cytokine release assays, FACS analysis in which the percentage and type of cells enriched during the enrichment process was analyzed, and using a CTL assay against selected target cells.
(§9) For producing the specific T cell subpopulation PBL were stimulated three times for 7, 5 and 2 days with ImMucin presented via DC and PBMC. Following the 3rd stimulation the cells were evaluated against the different VXL epitopes.

PBL [4] = assay: Proliferation of PBL, direct presentation of peptide without APC; conditions: for PBL Index of stimulation (SI) Direct no APC: naive donors, representative of 5 experiments; for Optimal dose Direct no APC: optimal dose required for PBL activation, six donors; for Optimal dose Direct no APC / Peak of Proliferation (Hours) Direct no APC: average of 5 experiments; for Peak of Proliferation (Hours) Direct no APC: visual inspection daily during 5 days
Description: In all three methods, plates were cultured for 3-5 days under visual control and then 0.5 □Cu/well of 3[H] (Amersham) was added for additional culture of to 18 h at 37° C. […] DC indirect presentation: In the first method, 100 µl of 2×10^6 thawed PBL were placed in U-shape Bottom 96 well plate (Nunc) with RPMI medium supplemented with 5% H AB serum, L-Glutamine, Sodium Pyruvate, MEM-EAGLE non-essential amino-acids, HEPES and Gentamycin. At the next stage 100 µl of 25×10^4 peptide-pulsed DC were added to each three wells of PBL and underwent proliferation analysis as described above. • 2. PBL direct presentation: In the 2nd method, 100 µl of 2×10^6 PBL were placed in Flat Bottom 96 well plates (Corning) and stimulated with different concentrations (0.05 ug/ml-2 ug/ml) of peptides. In the next step the cells underwent proliferation analysis as described above. • 3. PBMC direct presentation: In third method PNMC were used under similar conditions as described for the second method.
Direct presentation of peptides to PBL without any APC

[5] = tested on: lymphocytes from naive donors; assay: Proliferation assay, kinetics of lymphocyte activation as summarised in text (presentation mode not stated); conditions: summary of five experiments
Description: as §5
A different parameter for assessing the properties of ImMucin and the other VXL-peptide epitopes is by analyzing the time until a maximal peak of activity occurs and the optimal dose for maximal stimulation. Maximal peak of PBL activation is determined when <50% of the PBLs appear in clumps. In these experiments, the kinetic (time) in the proliferation of lymphocytes from the six naive donors stimulated at a fix dose of 0.05-1 ug/ml by ImMucin and other VXL-Peptides, was observed.

[6] = tested on: ImMucin specific T-cell subpopulation; assay: Proliferation of the ImMucin-specific T-cell subpopulation after three stimulations; conditions: one out of two experiments, four donors
Description: as §7, §5, §8, §9

LLLLTVLTV [VXL-2, LLLLTVLTV]
IFN-gamma (PBL [1]): 0 ng/mL | IL-2 (PBL [1]): 0 ng/mL | TNF-Alfa (PBL [1]): 0 ng/mL | PBL Index of stimulation (SI) via PBMC (PBMC): 1.2 | Optimal dose via PBMC (PBMC): 0.05 to 1 µg/mL | Peak of Proliferation (Hours) via PBMC (PBMC): 120 h | PBL Index of stimulation (SI) via DC (PBL [2]): 2.2 | IS (SI of the peptides as indicated in Table 7) (PBL [2]): 2.2 | Optimal dose via DC (PBL [2]): 12.5-25 × × 10e6/well | Peak of Proliferation (Hours) via DC (PBL [2]): 120 h | IL-2 % of clones [3]: 50% | IL-2 Range [3]: 2.53 to 10.2 ng/mL | INF-gamma % of clones [3]: 25% | INF-gamma Range [3]: 1.4 to 8.9 ng/mL | TNF-Alfa % of clones [3]: 83% | TNF-Alfa Range [3]: 1.9 to 9.4 ng/mL | IL-2 Range ng/ml ([3]; listed as VXL2): high | INF-gamma Range ng/ml ([3]; listed as VXL2): high | PBL Index of stimulation (SI) Direct no APC (PBL [4]): 0 | Optimal dose Direct no APC (PBL [4]): No Influence | Peak of Proliferation (Hours) Direct no APC (PBL [4]): No proliferation | peak of proliferation / maximum stimulation [5]: 120 h | IS (Average) [6]: 3.275 | IS (Range) [6]: 1.45-5.1

LLLTVLTVV [VXL-1, LLLTVLTVV]
IFN-gamma (PBL [1]): 0 ng/mL | IL-2 (PBL [1]): 0 ng/mL | PBL Index of stimulation (SI) via PBMC (PBMC): 1.59 | Optimal dose via PBMC (PBMC): 0.05 to 1 µg/mL | Peak of Proliferation (Hours) via PBMC (PBMC): 120 h | PBL Index of stimulation (SI) via DC (PBL [2]; listed as VLX-1): 3.2 | IS (SI of the peptides as indicated in Table 7) (PBL [2]): 3.2 | Optimal dose via DC (PBL [2]): 12.5-25 × × 10e6/well | Peak of Proliferation (Hours) via DC (PBL [2]): 120 h | IL-2 % of clones [3]: 83% | INF-gamma % of clones [3]: 33% | TNF-Alfa % of clones [3]: 83% | TNF-Alfa Range [3]: 2.7 to 9.8 ng/mL | PBL Index of stimulation (SI) Direct no APC (PBL [4]): 0 | Optimal dose Direct no APC (PBL [4]): No Influence | Peak of Proliferation (Hours) Direct no APC (PBL [4]): No proliferation | peak of proliferation / maximum stimulation [5]: 120 h | IS (Average) [6]: 3.05 | IS (Range) [6]: 1.66-4.4
